How the values were obtained:
[1] = wn = mass fraction of the nth substance listed; settings: 101 kPa, Liquid

Cn1cc[n+](C)c1.[Cl-] [1,3-dimethylimidazolium chloride]
Settings | Normal melting temperature [°C]
Crystal, visual observation | 126.00

Cn1cc[n+](C)c1.[Cl-] [1,3-dimethylimidazolium chloride] + O
mass density [kg/m3], [1]
Settings | w2 = 0.2004 | w2 = 0.3015 | w2 = 0.4019 | w2 = 0.5001 | w2 = 0.5992 | w2 = 0.7003 | w2 = 0.8003 | w2 = 0.898
293.15 K | 1157.78 | 1135.29 | 1111.77 | 1089.04 | 1067.56 | 1047.52 | 1030.53 | 1014.07
298.15 K | 1154.79 | 1132.4 | 1109.03 | 1087.14 | 1065.77 | 1045.81 | 1027.98 | 1012.2
303.15 K | 1152.15 | 1129.93 | 1106.69 | 1084.55 | 1063.34 | 1043.7 | 1026.15 | 1010.57
308.15 K | 1149.31 | 1127.15 | 1104.22 | 1082.68 | 1061.63 | 1041.8 | 1024.53 | 1008.86
313.15 K | 1146.46 | 1124.33 | 1101.07 | 1080.38 | 1059.44 | 1039.52 | 1022.66 | 1007.2
318.15 K | 1143.59 | 1121.85 | 1098.34 | 1078.58 | 1057.08 | 1037.12 | 1021.05 | 1005.65

CC#N [acetonitrile]
Settings | mass density [kg/m3]
308.1 K, 101.33 kPa, Liquid, Vibrating tube method | 765.98

— the NIST ThermoML archive (doi:10.1007/s10765-009-0651-x)
